{"source": "patent US12630545B2", "about": "“Crystal of compound X7 hydrochloride and its preparation method and application” (ORxes Therapeutics Co., Ltd., priority 2020, dated 2026)", "key": {"[1]": {"experiment": "Equilibrium solubility in water", "type": "physicochemical", "settings": "for Crystal form transformation: XRPD of solid after 24 hours equilibrium in water; for pH: supernatant after 24 hours equilibrium in water", "protocol": "As a comparison, the equilibrium solubility was also tested under the same conditions for crystal form C sample (prepared in Example 11), crystal form D sample (prepared in Example 12), and crystal form F sample (prepared in Example 13). The suspension of each crystal form (˜10 mg/mL) was prepared in the test, magnetically stirred at room temperature for 24 hours (rotating speed˜800 rpm) and then centrifuged (10000 rpm, 5 min). The solubility and pH were determined for the supernatant after filtration ([…] PTFE filter membrane) and XRPD (transmission) for the solid."}, "[2]": {"experiment": "Solid-state stability (HPLC purity, XRPD crystal form)", "type": "physicochemical", "protocol": "For the solid samples separated under different conditions, the chemical stability was evaluated by determining purity using the HPLC method, and the physical stability was evaluated by determining the crystal form using the XRPD test."}, "[3]": {"experiment": "Hygroscopicity by dynamic vapor sorption (DVS)", "type": "physicochemical", "protocol": "Dynamic vapor sorption (DVS) curves were created using DVS Intrinsic of SMS (Surface Measurement Systems). The relative humidity at 25° C. was corrected by the deliquescence points of LiCl, Mg (NO3)2, and KCl."}, "[4]": {"system": "isolated rabbit vascular smooth muscle contraction induced by spasmodic agent AD", "experiment": "Relaxation of isolated rabbit vascular smooth muscle contraction induced by spasmodic agent AD", "type": "cell-based", "settings": "Oryctolagus cuniculus; adrenaline hydrochloride 10^−5 mol/L; X7 1×10^−9˜1×10^−6 mol/L; read-out: −logEC50 to relax the rabbit aorta contraction by AD (converted)", "protocol": "After anesthetizing the rabbit, its chest was quickly cut open. The descending aorta, connective tissues, and surrounding adipose tissues were removed (if the serotonin receptor antagonistic test was carried out, a smooth stainless steel rod was used to remove the endothelial cells), and the aorta was cut into 3-5 mm vascular rings. Then, the steel wire hook was passed through the vascular ring, with one end fixed on the ventilation hook and the other end connected to the tension transducer and placed in a bath tube containing 20 ml of nutrient solution. The change in tension was recorded. The temperature was maintained in the bath tube at 37±0.5° C., and a mixed gas (95% O2+5% CO2) was introduced at the rate of 1-2 bubbles per second. […]\nAfter the specimen tension became stable, a waveform was recorded, the spasmodic agent adrenaline hydrochloride (AD) (10^−5 mol/L) was added in the bath tube to induce contraction. […] When the maximum response of the next contraction was basically the same as that of the previous one, the prepared X7 solution (1×10^−9˜1×10^−6 mol/L) was added, and the waveform recorded. With the maximum relaxation response of X7 as 100%, the relaxation percentage of X7 at each concentration was calculated and the dose-effect curve plotted using the relaxation percentage of X7 as the vertical coordinate and the logarithm of each concentration as the horizontal coordinate. […]"}, "[5]": {"system": "α receptor in rabbit vascular smooth muscle", "experiment": "Antagonism of norepinephrine cumulative contraction of rabbit aorta", "type": "cell-based", "protocol": "(§1) After anesthetizing the rabbit, its chest was quickly cut open. The descending aorta, connective tissues, and surrounding adipose tissues were removed (if the serotonin receptor antagonistic test was carried out, a smooth stainless steel rod was used to remove the endothelial cells), and the aorta was cut into 3-5 mm vascular rings. Then, the steel wire hook was passed through the vascular ring, with one end fixed on the ventilation hook and the other end connected to the tension transducer and placed in a bath tube containing 20 ml of nutrient solution. The change in tension was recorded. The temperature was maintained in the bath tube at 37±0.5° C., and a mixed gas (95% O2+5% CO2) was introduced at the rate of 1-2 bubbles per second. The initial load of the specimen was 1.5 g. The nutrient solution was changed every 20 min, balanced for 2 h, and the test was started after the baseline became stable.\nAfter the specimen tension became stable, a waveform was recorded and norepinephrine added cumulatively in the bath tube (10^−8˜6×10^−5 mol/L) until reaching the maximum response, and then, the waveform was recorded again. […]\nAfter the specimen tension became stable, a waveform was recorded and norepinephrine added cumulatively in the bath tube (10^−8˜3×10^−3 mol/L) until reaching the maximum response, and then, the waveform was recorded. […]"}, "[6]": {"system": "5-hydroxytryptamine (5-HT) receptor in rabbit vascular smooth muscle", "experiment": "Antagonism of 5-HT cumulative contraction of rabbit aorta", "type": "cell-based", "protocol": "as §1\nAfter the specimen tension became stable, the waveform was recorded and 5-HT added cumulatively in the bath tube (10^−7˜3×10^−4 mol/L) until reaching the maximum response, and the waveform was recorded again. […]\nAfter the specimen tension became stable, a waveform was recorded and 5-HT cumulatively added in the bath tube (10^−7˜3×10^−4 mol/L) until reaching the maximum response, and the waveform was recorded again. […]"}, "[7]": {"settings": "room temperature, hydrochloride"}, "[8]": {"settings": "3 conditions: sealed 80° C. 1 day, open 25° C./60% RH and 40° C./75% RH 1 week, hydrochloride"}, "[9]": {"settings": "equilibrium solubility in water, room temperature, 24 hours, hydrochloride"}}, "note": "“Also recorded” adds a separate entry of the source. Structures can show the parent of a compound that is named as a salt."}
{"smiles": "c1ccc2c(c1)nnn2CCCCN1CCN(c2nsc3ccccc23)CC1", "note": "[Crystal form A, 3-(4-(4-(1H-benzotriazol-1-yl)butyl)piperazin-1-yl) benzoisothiazole hydrochloride]", "values": [{"measurement": "Crystal form transformation", "setting": "[1]; hydrochloride", "value": "No"}, {"measurement": "Crystal form transformation", "setting": "[1]; listed as crystal form A, hydrochloride", "value": "remained unchanged"}, {"measurement": "pH", "setting": "[1]; [7]", "value": 4.6}, {"measurement": "solubility at 24 h", "setting": "[1]; water, thermodynamic from solid, equilibrium solubility in water, room temperature, 24 hours", "value": 3800, "unit": "µg/mL"}, {"measurement": "chemical purity change (chemical stability, HPLC)", "setting": "[2]; [8]", "value": "does not undergo crystal form transformation and chemical purity reduction; also recorded: no crystal form transformation or reduction of HPLC purity"}, {"measurement": "crystal form transformation (physical stability, XRPD)", "setting": "[2]; [8]", "value": "does not undergo crystal form transformation; also recorded: no crystal form transformation"}, {"measurement": "crystal form transformation after the DVS test", "setting": "[3]; 25° C.", "value": "no crystal form transformation"}, {"measurement": "water absorbed (DVS)", "setting": "[3]; 25° C./80% RH", "value": 0.08, "unit": "%"}, {"measurement": "hygroscopicity", "setting": "[3]; DVS, 25° C./80% RH, China Pharmacopoeia 2015 guide", "value": "no hygroscopicity"}]}
{"smiles": "c1ccc2c(c1)nnn2CCCCN1CCN(c2nsc3ccccc23)CC1", "note": "[Crystal form B, 3-(4-(4-(1H-benzotriazol-1-yl)butyl)piperazin-1-yl) benzoisothiazole hydrochloride]", "values": [{"measurement": "Crystal form transformation", "setting": "[1]; hydrochloride", "value": "No"}, {"measurement": "Crystal form transformation", "setting": "[1]; listed as crystal form B, hydrochloride", "value": "remained unchanged"}, {"measurement": "Solubility", "setting": "[1]; [9]", "value": 3400, "unit": "µg/mL"}, {"measurement": "pH", "setting": "[1]; [7]", "value": 4.9}, {"measurement": "chemical purity change (chemical stability, HPLC)", "setting": "[2]; [8]", "value": "does not decrease"}, {"measurement": "HPLC purity change", "setting": "[2]; open container, 25° C./60% RH, 1 week", "value": "no change in crystal form or HPLC purity"}, {"measurement": "crystal form change (physical stability, XRPD)", "setting": "[2]; open container, 25° C./60% RH, 1 week, hydrochloride", "value": "no change in crystal form"}, {"measurement": "crystal form change (physical stability, XRPD)", "setting": "[2]; open container, 25° C./60% RH, 1 week, listed as crystal form B, hydrochloride", "value": "remains unchanged"}, {"measurement": "water absorption (DVS)", "setting": "[3]; adsorption process, 95% RH, 25° C.", "value": 12.5, "unit": "%"}, {"measurement": "water absorbed (DVS)", "setting": "[3]; desorption process, 30% RH, 25° C.", "value": 0.4, "unit": "%"}, {"measurement": "water absorbed (DVS)", "setting": "[3]; desorption process, 50% RH, 25° C.", "value": 12.3, "unit": "%"}]}
{"smiles": "c1ccc2c(c1)nnn2CCCCN1CCN(c2nsc3ccccc23)CC1", "note": "[Crystal form C, 3-(4-(4-(1H-benzotriazol-1-yl)butyl)piperazin-1-yl) benzoisothiazole hydrochloride]", "values": [{"measurement": "Crystal form transformation", "setting": "[1]; hydrochloride", "value": "transformed into crystal form B"}, {"measurement": "Solubility", "setting": "[1]; [9]", "value": 3300, "unit": "µg/mL"}, {"measurement": "pH", "setting": "[1]; [7]", "value": 4.9}]}
{"smiles": "c1ccc2c(c1)nnn2CCCCN1CCN(c2nsc3ccccc23)CC1", "note": "[Crystal form D, 3-(4-(4-(1H-benzotriazol-1-yl)butyl)piperazin-1-yl) benzoisothiazole hydrochloride]", "values": [{"measurement": "Crystal form transformation", "setting": "[1]; listed as 0, hydrochloride", "value": "transformed into crystal form B"}, {"measurement": "Solubility", "setting": "[1]; [9]", "value": 3100, "unit": "µg/mL"}, {"measurement": "pH", "setting": "[1]; [7]", "value": 4.9}]}
{"smiles": "c1ccc2c(c1)nnn2CCCCN1CCN(c2nsc3ccccc23)CC1", "note": "[Crystal form F, 3-(4-(4-(1H-benzotriazol-1-yl)butyl)piperazin-1-yl) benzoisothiazole hydrochloride]", "values": [{"measurement": "Crystal form transformation", "setting": "[1]; hydrochloride", "value": "transformed into crystal form B"}, {"measurement": "Solubility", "setting": "[1]; [9]", "value": 2900, "unit": "µg/mL"}, {"measurement": "pH", "setting": "[1]; [7]", "value": 4.7}]}
{"smiles": "c1ccc2c(c1)nnn2CCCCN1CCN(c2nsc3ccccc23)CC1", "note": "[X7, 3-(4-(4-(1H-benzotriazol-1-yl)butyl)piperazin-1-yl) benzoisothiazole hydrochloride]", "values": [{"measurement": "EC50", "setting": "[4]", "value": 8.51, "unit": "nM"}, {"measurement": "PA2 to resist rabbit aorta contraction by norepinephrine", "setting": "[5]; X7 3×10^−8 mol/L", "value": "7.98±0.04"}, {"measurement": "PA2 to resist rabbit aorta contraction by 5HT", "setting": "[6]; X7 10^−7 mol/L, endothelium removed", "value": "8.86±0.14"}]}
{"smiles": "COc1cc2nc(N3CCN(C(=O)C4COc5ccccc5O4)CC3)nc(N)c2cc1OC", "note": "(stereo not shown) [doxazosin, reference compound]", "values": [{"measurement": "PA2 to resist rabbit aorta contraction by NA", "setting": "[5]; doxazosin 10^−7 mol/L", "value": "7.83±0.05"}]}
{"smiles": "COc1cccc(CCc2ccccc2OCC(CN(C)C)OC(=O)CCC(=O)O)c1", "note": "(stereo not shown) [sarpogrelate, reference compound]", "values": [{"measurement": "PA2 to resist rabbit aorta contraction by 5-HT", "setting": "[6]; sarpogrelate 10^−6 mol/L", "value": "7.21±0.08"}]}
